From publication PMC11234063, “Eugenol and lidocaine inhibit voltage-gated Na^+ channels from dorsal root ganglion neurons with different mechanisms” (Frontiers in Pharmacology, 2024)
Several values for one entry are separate records, joined by “and”; a condition that tells them apart may be missing. Equal values may be shown once. Entries after “also recorded” stand apart in the source; their conditions may differ. Read-outs that look alike come from different tables or passages of the source.

How the values were obtained:
Format in all cases: cell-based, rat
[1] = test system: total INa (VGSCs naturally expressed on dorsal root ganglion sensory neurons); assay: Dose–response inhibition of total INa peak, whole-cell patch clamp
[2] = test system: persistent total INa (DRG neurons); assay: Persistent total INa at the end of 50-ms depolarizing pulses; settings: EUG 2 mM, LID 1 mM
[3] = test system: TTX-R INa (VGSCs of DRG neurons)
[4] = test system: total INa (VGSCs of DRG neurons); assay: INa inactivation time constants during test pulse, total INa
[5] = test system: total INa (VGSCs of DRG neurons); assay: Voltage dependence of Na+ conductance activation (I-V and G-V curves), total INa; settings: EUG 2 mM
[6] = test system: total INa (VGSCs of DRG neurons); assay: Slow inactivation entry, three-pulse protocol, total INa
[7] = test system: TTX-R INa (VGSCs of DRG neurons); settings: EUG 2 mM, LID 1 mM
[8] = test system: total INa (VGSCs of DRG neurons); assay: Inhibition in depolarization time series at 2 and 5 Hz, total INa; settings: EUG 2 mM, LID 1 mM
DRG neuron = assay: Action potential firing, current clamp; settings: EUG 1 mM; 1-ms 1-nA depolarizing current injection
[9] = test system: TTX-R INa (VGSCs of DRG neurons); remark: listed apart in the source
[10] = test system: total INa (VGSCs of DRG neurons); assay: Steady-state inactivation, 100-ms conditioning pre-pulses, total INa; settings: EUG 2 mM, LID 1 mM
[11] = test system: TTX-R INa (VGSCs of DRG neurons); settings: EUG 2 mM, LID 1 mM; remark: listed apart in the source
[12] = test system: TTX-R INa (VGSCs of DRG neurons); assay: Voltage dependence of Na+ conductance activation (I-V and G-V curves), TTX-R INa; settings: EUG 2 mM
[13] = test system: TTX-R INa (VGSCs of DRG neurons); assay: Slow inactivation entry, three-pulse protocol, TTX-R INa
[14] = inhibition at all activating voltages
[15] = individual cells, during exposure to EUG 2 mM or LID 1 mM

SMILES: C/C=C\c1ccc(O)c(OC)c1 [IEUG]
- Dose response curves' data, Average (fractional current) ([1]; total INa, drug at 3 mM): 0.40
- Dose response curves' data, Average (fractional current) ([1]; total INa, drug at 10 mM): 0.02

SMILES: C=CCc1ccc(O)c(OC)c1 [EUG, 4-allyl-2-methoxyphenol]
- Inhibition of persistent total INa after 50-ms depolarization [2]: remarkably inhibited; also recorded: effectively inhibits
- Effect on inactivation time constants [3]: unaffected
- Effect on inactivation time constants [4]: unaffected
- Pre-inhibition of total INa ([1]; EUG at 1.3 mM): ~25%
- Time to inhibition of INa upon addition ([1]; fast single-cell superfusion, 0.2 Hz time series): less than 5 s
- Reversibility of inhibition after drug washout ([1]; total INa): fully reversible
- Dose response curves' data, Average (fractional current), EUG (LID 0.5 mM) ([1]; total INa, EUG 0.1 mM in the presence of LID 0.5 mM): 0.97
- Dose response curves' data, Average (fractional current), EUG (LID 0.5 mM) ([1]; total INa, EUG 0.3 mM in the presence of LID 0.5 mM): 0.85
- Dose response curves' data, Average (fractional current), EUG (LID 0.5 mM) ([1]; total INa, EUG 1 mM in the presence of LID 0.5 mM): 0.60
- Dose response curves' data, Average (fractional current), EUG (LID 0.5 mM) ([1]; total INa, EUG 3 mM in the presence of LID 0.5 mM): 0.46
- Dose response curves' data, Average (fractional current), EUG (LID 0.5 mM) ([1]; total INa, EUG 10 mM in the presence of LID 0.5 mM): 0.10
- Dose response curves' data, Average (fractional current) ([1]; total INa, drug at 0.001 mM): 1.00
- Dose response curves' data, Average (fractional current) ([1]; total INa, drug at 0.1 mM): 0.98
- Dose response curves' data, Average (fractional current) ([1]; total INa, drug at 0.3 mM): 0.93
- Dose response curves' data, Average (fractional current) ([1]; total INa, drug at 1 mM): 0.86
- Dose response curves' data, Average (fractional current) ([1]; total INa, drug at 3 mM): 0.36
- Dose response curves' data, Average (fractional current) ([1]; total INa, drug at 10 mM): 0.07
- Dose response curves' data, Average (fractional current) ([1]; total INa, drug at 30 mM): 0.01
- IC50 ([1]; total INa, holding −110 mV, test +20 mV, drug alone): 2270 ± 75 µM
- Time series of INa blockade, Average (normalized current) ([1]; total INa, time 15 sec, drug exposure): 0.55
- Time series of INa blockade, Average (normalized current) ([1]; total INa, time 20 sec, drug exposure): 0.54
- Time series of INa blockade, Average (normalized current) ([1]; total INa, time 25 sec, drug exposure): 0.54
- Time series of INa blockade, Average (normalized current) ([1]; total INa, time 30 sec, recovery): 0.96
- Time series of INa blockade, Average (normalized current) ([1]; total INa, time 35 sec, recovery): 0.99
- Time series of INa blockade, Average (normalized current) ([1]; total INa, time 40 sec, recovery): 0.99
- Max slope-act ([5]; LID 1 mM): 5.4 ± 0.41 (n = 9) mV/e-fold
- V1/2-act ([5]; LID 1 mM): −13.8 ± 2.18 (n = 9) mV
- Effect on reversal potential of the currents [5, 14]: without significantly affecting
- Max slope-act in individual cells ([5]; individual cells, LID 1 mM): 5.526 mV/efold and 5.494 mV/efold and 4.967 mV/efold and 6.616 mV/efold and 5.996 mV/efold and 6.156 mV/efold and 4.306 mV/efold and 2.717 mV/efold and 6.496 mV/efold
- V1/2-act in individual cells ([5]; individual cells, LID 1 mM): -10.73 mV and -7.173 mV and -19.64 mV and -5.137 mV and -8.98 mV and -24.01 mV and -14.91 mV and -13.00 mV and -20.84 mV
- Fast inactivation entry time constant ([6]; EUG 2 mM, LID 1 mM): 792.48 ± 298.530 ^ns ms
- Fractional current when P1 = 2 m ([6]; EUG 2 mM, LID 1 mM): 0.82 ± 0.034 ^ns
- Percent fast component (slow inactivation entry) ([6]; EUG 2 mM, LID 1 mM): 26.92 ± 4.583 ^ns %
- Slow inactivation entry time constant ([6]; EUG 2 mM, LID 1 mM): 1,142.30 ± 246.525 ^ns
- Slow inactivation state entry kinetics of INa, individual cells [6, 15]: 713.90 and 1928.00 and 344.50 and 1032.00 and 1066.00
- Fractional inhibition, 2 Hz, 20th pulse [7]: 0.44 ± 0.064 (n = 6)
- Fractional inhibition, 5 Hz, 20th pulse [7]: 0.49 ± 0.061 (n = 6)
- Fractional current after blockade, 2 Hz, 1st pulse, individual cells ([7]; individual cells): 0.62 and 0.6 and 0.47 and 0.55
- Fractional current after blockade, 2 Hz, 20th pulse, individual cells ([7]; individual cells): 0.56 and 0.48 and 0.36 and 0.46
- Fractional current after blockade, 5 Hz, 1st pulse, individual cells ([7]; individual cells): 0.75 and 0.63 and 0.55 and 0.51
- Fractional current after blockade, 5 Hz, 20th pulse, individual cells ([7]; individual cells): 0.66 and 0.54 and 0.36 and 0.43
- Fractional inhibition, 2 Hz, 1st pulse [8]: 0.53 ± 0.049 (n = 9)
- Fractional inhibition, 5 Hz, 1st pulse [8]: 0.49 ± 0.056 (n = 8)
- Fractional current after blockade, 2 Hz, 1st pulse, individual cells ([8]; individual cells): 0.40 and 0.52 and 0.58 and 0.37 and 0.28 and 0.50 and 0.730 and 0.29 and 0.53
- Fractional current after blockade, 2 Hz, 20th pulse, individual cells ([8]; individual cells): 0.36 and 0.54 and 0.56 (2×) and 0.34 and 0.15 and 0.49 and 0.74 and 0.26
- Fractional current after blockade, 5 Hz, 1st pulse, individual cells ([8]; individual cells): 0.4 and 0.56 and 0.58 and 0.35
- Fractional current after blockade, 5 Hz, 20th pulse, individual cells ([8]; individual cells): 0.31 (2×) and 0.47 and 0.54
- Effect on action potential firing (DRG neuron): promptly inhibits action potential firing; also recorded: prevents neurons from firing action potentials
- Reversibility of inhibition after drug washout [9]: fully reversible
- Dose response curves' data, Average (fractional current) ([9]; drug at 0.1 mM): 0.96
- Dose response curves' data, Average (fractional current) ([9]; drug at 0.3 mM): 0.92
- Dose response curves' data, Average (fractional current) ([9]; drug at 1 mM): 0.85
- Dose response curves' data, Average (fractional current) ([9]; drug at 3 mM): 0.34
- Dose response curves' data, Average (fractional current) ([9]; drug at 10 mM): 0.14
- Dose response curves' data, Average (fractional current) ([9]; drug at 30 mM): 0.00
- IC50 ([9]; holding −110 mV, test +20 mV): 2210 ± 80 µM
- Time series of INa blockade, Average (normalized current) ([9]; time 15 sec, drug exposure): 0.62
- Time series of INa blockade, Average (normalized current) ([9]; time 20 sec, drug exposure): 0.62
- Time series of INa blockade, Average (normalized current) ([9]; time 25 sec, drug exposure): 0.63
- Time series of INa blockade, Average (normalized current) ([9]; time 30 sec, recovery): 1.00
- Time series of INa blockade, Average (normalized current) ([9]; time 35 sec, recovery): 1.04
- Time series of INa blockade, Average (normalized current) ([9]; time 40 sec, recovery): 1.03
- Max slope-inact [10]: −12.2 ± 10.7 (n = 9) ns mV/e-fold
- V1/2-inact [10]: −63.85 ± 2.92 (n = 9) mV
- Max slope-inact in individual cells ([10]; individual cells): -14.8 mV/efold and -10.65 mV/efold and -13.47 mV/efold and -10.21 mV/efold and -17.93 mV/efold and -9.046 mV/efold and -7.985 mV/efold and -14.87 mV/efold and -11.22 mV/efold
- V1/2-inact in individual cells ([10]; individual cells): -63.75 mV and -57.14 mV and -69.63 mV and -55.48 mV and -75.79 mV and -59.29 mV and -57.64 mV and -78.67 mV and -57.24 mV
- Shift of the steady-state inactivation curve, on average ([11]; 100-ms conditioning pulse): −5 mV
- Max slope-inact [11]: −5.83 ± 0.43 (n = 7) ns mV/e-fold
- V1/2-inact [11]: −36.9 ± 2.48 (n = 7) mV
- Max slope-inact in individual cells ([11]; individual cells): -5.184 mV/efold and -6.728 mV/efold and -5.779 mV/efold and -3.945 mV/efold and -7.158 mV/efold and -6.792 mV/efold and -5.233 mV/efold
- V1/2-inact in individual cells ([11]; individual cells): -28.59 mV and -33.94 mV and -32.48 mV and -34.07 mV and -46.4 mV and -44.79 mV and -37.94 mV
- Max slope-act ([12]; LID 1 mM): 6.4 ± 0.4 (n = 7) mV/e-fold
- V1/2-act ([12]; LID 1 mM): −11.5 ± 1.96 (n = 7) ns mV
- Effect on reversal potential of the currents [12, 14]: without significantly affecting
- Max slope-act in individual cells ([12]; individual cells, LID 1 mM): 6.818 mV/efold and 6.311 mV/efold and 5.452 mV/efold and 4.894 mV/efold and 8.267 mV/efold and 6.510 mV/efold and 6.698 mV/efold
- V1/2-act in individual cells ([12]; individual cells, LID 1 mM): -9.916 mV and -13.33 mV and -16.67 mV and -10.24 mV and -5.511 mV and -5.684 mV and -19.13 mV
- Fast inactivation entry time constant ([13]; EUG 2 mM, LID 1 mM): 76.58 ± 30.563^ns ms
- Fractional current when P1 = 2 m ([13]; EUG 2 mM, LID 1 mM): 0.93 ± 0.028^ns
- Percent fast component (slow inactivation entry) ([13]; EUG 2 mM, LID 1 mM): 47.56 ± 16.257^ns %
- Slow inactivation entry time constant ([13]; EUG 2 mM, LID 1 mM): 631.05 ± 282.320^ns
- Slow inactivation state entry kinetics of INa, individual cells [13, 15]: 558.80 and 167.30 and 405.40 and 711.30 and 255.80
